Measured values as given in patent publication US12599556B2, “Ophthalmic compositions” (BIOTHERAVISION, INC., priority 2021, dated 2026).

Experiment: Stability study: assay and related substances by gradient HPLC
Assay type: physicochemical
Procedure: The stability of the exemplary compositions was investigated using gradient high performance liquid chromatography analysis at different storage time points of 1 month, 3 months, 6 months, 9 months, and 11 months. The amount of each active ingredient and related degradation substances, pH, osmolality, particle size distribution, and viscosity were measured for each composition at each time point.
The suspension slurry was not irradiation sterilized in the preparation of Panel 1 formulations.
The results of the Panel II stability studies at the accelerated condition (40° C.) for the compositions shown in Table 4 are summarized in Table 6. The suspension slurry of Panel 2 formulations F7, F8, and F9 were irradiation sterilized.

Stability of ketorolac tromethamine in the compositions (all compositions of the stability studies)	Degradation of loteprednol etabonate (stability studies)	SMILES
exhibited stability		O=C(c1ccccc1)c1ccc2n1CCC2C(=O)O (centres unmarked) [Ketorolac tromethamine, 2-amino-2-(hydroxymethyl)propane-1,3-diol; 5-benzoyl-2,3-dihydro-1H-pyrrolizine-1-carboxylic acid]
	pH dependency	CCOC(=O)O[C@]1(C(=O)OCCl)CC[C@H]2[C@@H]3CCC4=CC(=O)C=C[C@]4(C)[C@H]3[C@@H](O)C[C@@]21C [loteprednol etabonate, chloromethyl (8S,9S,10R,11S,13S,14S,17R)-17-ethoxycarbonyloxy-11-hydroxy-10,13-dimethyl-3-oxo-7,8,9,11,12,14,15,16-octahydro-6H-cyclopenta[a]phenanthrene-17-carboxylate]
